Source: patent publication US7807704B2, “Bicyclic, nitrogen-containing compounds modulating CXCR4 and/or CCXCKR2” (Chemocentryx, Inc., priority 2006, dated 2010)

Molecular target: T1, CXCR4 (Homo sapiens, UniProt P61073)
T1 construct: all endogenously expressing CXCR4; endogenous in cells; host or cells: CEM-Nkr, CCRF-CEM, Jurkat, Molt-4; IL-2 stimulated human lymphocytes
Test: chemotaxis assay or 125I SDF-1α binding assay for CXCR4
Conditions: first or only activity listed, read-out: CXCR4 activity (IC50 class)
Method: CEM-Nkr, CCRF-CEM (ATCC #CCL-119), Jurkat (ATCC #TIB-152), Molt-4 (ATCC# CRL-1582), cell lines, all endogenously expressing CXCR4, were used in compound screening and subsequent assays. These cell lines were cultured as a suspension in RPMI-1640 medium supplemented with 2 mM L-glutamine, 1.5 g/L sodium bicarbonate, 4.5 g/L glucose, 10 mM HEPES, 1 mM sodium pyruvate, and 10% FBS. Cells were grown under 5% CO2/95% air, 100% humidity at 37° C. and subcultured twice weekly at 1:6 (cells were cultured at a density range of 1×10^5 to 2×10^6 cells/mL) and harvested at 1×10^6 cells/mL. • b) Isolated Human IL-2 Stimulated Lymphocytes
Cells were centrifuged and resuspended in assay buffer (20 mM HEPES pH 7.1, 140 mM NaCl, 1 mM CaCl2, 5 mM MgCl2, and with 0.2% bovine serum albumin) to a concentration of 4×10^6 cells/mL for cell lines. Binding assays were set up as follows. […] Then 0.1 mL of ^125I labeled SDF-1α (obtained from Perkin Elmer Life Sciences, Boston, Mass.) diluted in assay buffer to a final concentration of ˜50 pM, yielding ˜30,000 cpm per well, was added, the plates sealed and incubated for approximately 3 hours at 4° C. on a shaker platform. Reactions were aspirated onto GF/B glass filters pre-soaked in 0.3% polyethyleneimine (PEI) solution, on a vacuum cell harvester (Packard Instruments; Meriden, Conn.). Scintillation fluid (40 μl; Microscint 20, Packard Instruments) was added to each well, the plates were sealed and radioactivity measured in a Topcount scintillation counter (Packard Instruments). Control wells containing either diluent only (for total counts) or excess SDF1 a (1 μg/mL, for non-specific binding) were used to calculate the percent of total inhibition for compound. The computer program Prism from GraphPad, Inc. (San Diego, Calif.) was used to calculate IC50 values. IC50 values are those concentrations required to reduce the binding of radiolabeled SDF-1α to the receptor by 50%. (For further descriptions of ligand binding and other functional assays, see Dairaghi, et al., J. Biol. Chem. 274:21569-21574 (1999), Penfold, et al., Proc. Natl. Acad. Sci. USA. 96:9839-9844 (1999), and Dairaghi, et al., J. Biol. Chem. 272:28206-28209 (1997)).
Chemotaxis assays were performed using 5 μm pore polycarbonate, polyvinylpyrrolidone-coated filters in 96-well chemotaxis chambers (Neuroprobe; Gaithersburg, Md.) using chemotaxis buffer (Hank's balanced salt solution (HBSS) and 1% FBS). CXCR4 ligand (i.e., SDF1a, R&D Systems; Minneapolis, Minn.) are use to evaluate compound mediated inhibition of CXCR4 mediated migration. Other chemokines (i.e., TECK; R&D Systems; Minneapolis, Minn.) are used as specificity controls. The lower chamber was loaded with 29 μl of chemokine (i.e., 0.1 nM SDF1a); the top chamber contained 50,000 Jurkat cells or IL-2 lymphocytes in 20 μl. The chambers were incubated 2 hours at 37° C., and the number of cells in the lower chamber quantified either by direct cell counts in five high powered fields per well or by the CyQuant assay (Molecular Probes), a fluorescent dye method that measures nucleic acid content and microscopic observation.
To evaluate small organic molecules that prevent the CXCR4 from binding ligand, an assay was employed that detected radioactive ligand (i.e, SDF-1) binding to cells expressing CXCR4 on the cell surface (for example, CEM-Nkr cells). For compounds that inhibited binding, whether competitive or not, fewer radioactive counts are observed when compared to uninhibited controls.
Equal numbers of cells were added to each well in the plate. The cells were then incubated with radiolabeled […]. Unbound ligand was removed by washing the cells, and bound ligand was determined by quantifying radioactive counts. Cells that were incubated without any organic compound gave total counts; non-specific binding was determined by incubating the cells with unlabeled ligand and labeled ligand. Percent inhibition was determined by the equation: […]

T1 sequence (P61073 whole entry): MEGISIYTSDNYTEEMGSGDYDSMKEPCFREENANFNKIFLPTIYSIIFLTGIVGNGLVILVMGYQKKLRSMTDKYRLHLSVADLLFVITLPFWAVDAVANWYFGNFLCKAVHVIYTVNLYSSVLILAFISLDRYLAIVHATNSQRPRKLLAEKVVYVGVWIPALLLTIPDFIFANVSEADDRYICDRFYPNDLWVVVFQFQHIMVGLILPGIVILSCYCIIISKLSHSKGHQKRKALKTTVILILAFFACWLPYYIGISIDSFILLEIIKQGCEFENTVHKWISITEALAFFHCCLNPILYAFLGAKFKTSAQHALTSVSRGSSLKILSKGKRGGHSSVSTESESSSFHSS

Structure (SMILES)	IC50 [nM]
CN(CCNC(=O)Cn1ccc2ccc(-c3ccc(C(F)(F)F)cc3)cc21)C1CCCCC1 [No 25]	< 1000
Cc1ccc(-c2ccc3ccn(CC(=O)NCCN4CCCC(C)(C)C4)c3c2)cc1 [No 63]	< 1000
Cc1ccc(-c2ccc3ccn(CC(=O)NCCN4CCCC4)c3c2)cc1 [No 52]	< 1000
Cc1ccc(-c2ccc3cnn(CC(=O)NCCN(C)C4CCCCC4)c3c2)cc1 [No 49]	< 1000
COc1cc(-c2ccc(C)cc2)cc2c1ccn2CC(=O)NCCN(C)C1CCCCC1 [No 17]	< 1000
Cc1ccc(-c2ccc3ccn(CC(=O)NCCN4CCCCCC4)c3c2)cc1 [No 54]	< 1000
CN(CCNC(=O)Cn1ccc2ccc(-c3cc4ccccc4o3)cc21)C1CCCCC1 [No 37]	< 1000
CN(CCNC(=O)Cn1cnc2c1CCOC2)C1CCCCC1 [No 19]	> 10000
Cc1ccc(-c2ccc3ccn(CC(=O)NCCN(C)C4CCCC4)c3c2)cc1 [No 51]	< 1000
CN(C)c1ccc(-c2ccc3ccn(CC(=O)NCCN(C)C4CCCCC4)c3c2)cc1 [No 62]	< 1000
CN(CCNC(=O)Cn1cc2ccccc2n1)C1CCCCC1 [No 10]	1000 to 10000
CN(CCNC(=O)Cn1ccc2ccc(-c3ccc(C(N)=O)cc3)cc21)C1CCCCC1 [No 50]	< 1000
Cc1ccc(-c2ccc3ccn(CC(=O)NCCN4CC(C)CC(C)C4)c3c2)cc1 (centres unmarked) [No 64]	< 1000
CN(CCNC(=O)Cn1ccc2ccc(-c3ccc(C#N)cc3)cc21)C1CCCCC1 [No 57]	< 1000
O=C(Cn1ccc2cccc(-c3ccc(F)cc3)c21)NCCN1CCCC2CCCCC21 (centres unmarked) [No 4]	< 1000
Cc1ccc(-c2ccc3ccn(CC(=O)NCCNC4CCOC4)c3c2)cc1 (centres unmarked) [No 13]	1000 to 10000
C=Cc1ccc(-c2ccc3ccn(CC(=O)NCCN(C)C4CCCCC4)c3c2)cc1 [No 45]	< 1000
CN(CCNC(=O)Cn1cnc2c(F)c(F)ccc21)C1CCCCC1 [No 18]	< 1000
COC(=O)c1cc2ccc(-c3ccc(C)cc3)cc2n1CC(=O)NCCN(C)C1CCCCC1 [No 58]	< 1000
Cc1ccc(-c2ccc3ccn(CC(=O)NC(C)(C)CN4CCCC4)c3c2)cc1 [No 15]	1000 to 10000
CCN(CCNC(=O)Cn1ccc2ccc(-c3ccc(C)cc3)cc21)C1CCCCC1 [No 55]	< 1000
Cc1ccc(-c2ccc3ccn(CC(=O)NCCN4CCCCC4)c3c2)cc1 [No 11]	< 1000
Cc1ccc(-c2ccc3oc(=O)n(CC(=O)NCCN(C)C4CCCCC4)c3c2)cc1 [No 12]	< 1000
CN(CCNC(=O)Cn1cnc2ncccc21)C1CCCCC1 [No 7]	1000 to 10000
CN(CCNC(=O)Cn1ccc2ccc(-c3cnc4ccccc4c3)cc21)C1CCCCC1 [No 36]	< 1000
Cc1ccc(-c2ccc3c(ccn3CC(=O)NCCN(C)C3CCCCC3)c2)cc1 [No 41]	< 1000
Cc1ccc(-c2ccc3c(C4=CCCC=C4)nn(CC(=O)NCCN(C)C4CCCCC4)c3c2)cc1 [No 16]	1000 to 10000

Structure (SMILES)	IC50 [nM]
Cc1ccc(-c2cccc3c2ccn3CC(=O)NCCN(C)C2CCCCC2)cc1 [No 43]	< 1000
CN(CCNC(=O)Cn1ncc2ccccc21)C1CCCCC1 [No 2]	> 10000
CN(CCNC(=O)Cn1ncc2c1CCCC2)C1CCCCC1 [No 6]	> 10000
CN(CCNC(=O)Cn1ccc2cccc([N+](=O)[O-])c21)C1CCCCC1 [No 8]	< 1000
Cc1ccccc1-c1ccc2ccn(CC(=O)NCCN(C)C3CCCCC3)c2c1 [No 30]	1000 to 10000
Cc1ccc(-c2ccc3ccn(CC(=O)NC(C)CN4CCCC4)c3c2)cc1 (centres unmarked) [No 59]	< 1000
CN(CCCNC(=O)Cn1ccc2cccc(-c3ccc(F)cc3)c21)C1CCCCC1 [No 1]	< 1000
Cc1cccc(-c2ccc3ccn(CC(=O)NCCN(C)C4CCCCC4)c3c2)c1 [No 39]	< 1000
CN(CCNC(=O)Cc1c[nH]c2ccccc12)C1CCCCC1 [No 20]	1000 to 10000
CC(C)c1ccc(-c2ccc3ccn(CC(=O)NCCN4CCCC5CCCCC54)c3c2)cc1 (centres unmarked) [No 3]	< 1000
CN(CCNC(=O)Cn1ccc2ccc(-c3ccncc3)cc21)C1CCCCC1 [No 40]	< 1000
Cc1ccc(-c2ccc3ccn(CC(=O)NCCN(C)C4CCCCC4)c3c2)c(F)c1 [No 47]	< 1000
Cc1ccc(-c2ccc3ccn(CC(=O)NCCN4CCCCC4C)c3c2)cc1 (centres unmarked) [No 53]	< 1000
Cc1ccc(-c2ccc3ncn(CC(=O)NCCN(C)C4CCCCC4)c3c2)cc1 [No 60]	< 1000
Cc1ccc(-c2ccc3ccn(CC(=O)NCCN4CCC(C)CC4)c3c2)cc1 [No 56]	< 1000
Cc1ccc2c(c1)ncn2CC(=O)NCCN(C)C1CCCCC1 [No 9]	< 1000
CCc1ccc(-c2ccc3ccn(CC(=O)NCCN(C)C4CCCCC4)c3c2)cc1 [No 38]	< 1000
Cc1ccc(-c2ccc3ccn(CC(=O)NCCN(C)C4CCCCC4)c3c2)cc1C [No 46]	< 1000
Cc1ccc(-c2ccc3cc(C(=O)O)n(CC(=O)NCCN(C)C4CCCCC4)c3c2)cc1 [No 14]	< 1000
CN(CCNC(=O)Cn1ccc2ccc(-c3ccccc3)cc21)C1CCCCC1 [No 22]	< 1000
CN(CCNC(=O)Cn1ccc2cc(-c3ccc(F)cc3)ccc21)C1CCCCC1 [No 42]	< 1000
Cc1ccc(-c2ccc3ccn(CC(=O)NCC(C)N4CCCC4)c3c2)cc1 (centres unmarked) [No 61]	< 1000
CN(CCNC(=O)Cn1nc(Cl)c2ccccc21)C1CCCCC1 [No 21]	1000 to 10000
Cc1ccc(-c2ccc3ccn(CC(=O)NCCN4CCC[C@@H]5CCCC[C@H]54)c3c2)cc1 [No 44]	< 1000
Cc1ccc(-c2ccc3ccn(CC(=O)NCCN(C)C4CCCCC4)c3c2)cc1F [No 48]	< 1000
CN(CCNC(=O)Cn1ccc2ccc(-c3ccc(Cl)cc3)cc21)C1CCCCC1 [No 29]	< 1000
